Consider 10 molecules from patent publication US9457095B2, “Pharmaceutical compositions providing enhanced drug concentrations” (Bend Research, Inc., priority 1999, dated 2016).

The term Cmax denotes the maximum level reached in the sampled fluid or tissue.

Common to all, as to type: physicochemical
A short description of series [1]: solubility of sertraline forms. The following applies: for solubility: sertraline forms, pH 3, expressed as the free base.
Series [2] is described as follows: microcentrifuge dissolution, ziprasidone mesylate (Drug 3) with polymer. To be noted: for [Drug 3]: PBS, 37° C. On the procedure:
Ziprasidone mesylate (Drug 3) is the soluble salt form of the antipsychotic drug ziprasidone. For these tests, 0.5 mg drug was added to each of 8 microcentrifuge tubes. For Control 5, no concentration-enhancing polymer was added to Tubes 1 and 2. For Example 12, 1.0 mg of CAT was added to Tubes 3 and 4. For Example 13, 1.0 mg of CAP (NF grade from Eastman Fine Chemical of Kingsport, Tenn.) was added to Tubes 5 and 6. For Example 14, 1.0 mg HPMCP (NF grade from Eastman Chemical Company) was added to Tubes 7 and 8.
Dissolution performance was measured at 37° C. using the microcentrifuge method described in Example 1. For each test, 0.616 mg of Drug 3 was added to the microcentrifuge tube. At time 0, 1.8 mL PBS was added to each of the tubes. Drug concentration was measured using HPLC, with a mobile phase of 60 vol. % 0.02 M KH2PO4, pH 3.0 in ACN, and diode array detection at 254 nm.

Series [3] can be described thus: Cmax of Drug 1 forms in MFD solution. The following applies: pH 6.5 MFD solution.
Series [4] in a line: microcentrifuge dissolution, sertraline lactate (Drug 2) with polymer. On the procedure:
For these tests, 1.8 mg sertraline lactate was added to 0.9 mL HPLC water in each of six microcentrifuge tubes. For Control 4, 0.9 mL 2×PBS (PBS solution with 2 times the standard buffer salt concentration), adjusted to pH 8.0, was added to Tubes 1 and 2. For Example 10, 0.9 mL 2×PBS (pH 8.0) containing 3.6 mg of HPMCAS-MF was added to Tubes 3 and 4. For Example 11, 0.9 mL 2×PBS (pH 8.0) containing 3.6 mg of CAT was added to Tubes 5 and 6.
Dissolution performance was measured at 37° C. using the microcentrifuge method described in Example 1. Samples were taken after 4, 10, 20, 40, 90, and 180 minutes as described in Example 1. Samples were diluted in 35% H2O/65% ACN (vol./vol.), and analyzed by HPLC. The mobile phase was 35 vol. % 0.025 M triethylamine with 0.05M acetic acid in HPLC water in ACN. The analytical column used was a Phenomenex ODS 20, and the drug concentration was determined using diode array detection at 230 nm.

Series [5] in a line: microcentrifuge dissolution, amorphous Drug 1 with varying ratios of HPMCAS-MF. To be noted: 15 mg amorphous Drug 1 in 1.5 mL PBS, 37° C. On the procedure: Amorphous Drug 1 (15 mg) was added to microcentrifuge tubes containing 1.5 mL of PBS solution and varying concentrations of HPMCAS-MF. Dissolution performance was measured at 37° C. using the microcentrifuge method described in Example 1. Drug concentration was measured at 1.5 hours and at 20 hours for each polymer concentration.

The nature of series [6]: solubility of Drug 4 polymorphs in water. To be noted: Drug 4 mesylate polymorph.
Series [7] in a line: solubility of Drug 6 salt forms. The following applies: Drug 6 salts.

Converted amounts (≈) assume the structure as drawn. Where a name gives a salt, the structure may show the parent alone.

In series [1], `CN[C@H]1CC[C@@H](c2ccc(Cl)c(Cl)c2)c2ccccc21` [Drug 2, sertraline lactate] returned a solubility of 256 mg/mL.

For the molecule `CS(=O)(=O)O.O=C1Cc2cc(CCN3CCN(c4nsc5ccccc45)CC3)c(Cl)cc2N1` [Control 5], the AUC180 in series [2] (Drug 3 dissolution in PBS) amounted to 1000 µg·min/mL. For the same molecule, the Cmax in series [2] (Drug 3 dissolution in PBS) was 11 µg/mL. In addition, the “[Drug 3]” value in series [2] (10 mins) worked out at 3 µg/mL; in series [2] (20 mins) it was 11 µg/mL; in series [2] (40 mins), 6 µg/mL; in series [2] (90 mins), 7 µg/mL; in series [2] (180 mins), 1 µg/mL.

With `CN[C@H]1CC[C@@H](c2ccc(Cl)c(Cl)c2)c2ccccc21` [Drug 5, sertraline HCl], the solubility in series [1] (aqueous solution, aqueous buffer, read-out: solubility) is 3 mg/mL. The solubility thermodynamic in series [1] (distilled water, aqueous buffer, thermodynamic from solid, sertraline hydrochloride with or without citric acid, pH 3, read-out: equilibrium solubility) is 3000 µg/mL.

On to `O=C(N[C@@H](Cc1ccccc1)[C@@H](O)C(=O)N1C[C@@H](O)[C@@H](O)C1)c1cc2cc(Cl)ccc2[nH]1` [crystalline Drug 1, 5-chloro-1H-indole-2-carboxylic acid [(1 S)-benzyl-3-((3R, 4S)-dihydroxypyrroldin-1-yl-)-(2R)-hydroxy-3-oxypropyl] amide], for which the Cmax in series [3] (listed as crystalline form) is 160 µg/mL.

As to `CN[C@H]1CC[C@@H](c2ccc(Cl)c(Cl)c2)c2ccccc21` [Control 4], the “[Drug 2]” value in series [4] (10 mins) is 89 µg/mL; in series [4] (20 mins), 72 µg/mL; in series [4] (40 mins), 67 µg/mL; in series [4] (90 mins) it was 63 µg/mL; in series [4] (180 mins), 60 µg/mL; in series [4] (PBS (2x PBS pH 8.0 added), 37° C., 4 mins), 101 µg/mL. In series [4] (Drug 2 dissolution), the AUC180 is given as 11,700 min * μg/mL. This molecule yielded a Cmax in series [4] (Drug 2 dissolution) of 101 µg/mL.

Regarding `O=C(N[C@@H](Cc1ccccc1)[C@@H](O)C(=O)N1C[C@@H](O)[C@@H](O)C1)c1cc2cc(Cl)ccc2[nH]1` [amorphous Drug 1, 5-chloro-1H-indole-2-carboxylic acid [(1 S)-benzyl-3-((3R, 4S)-dihydroxypyrroldin-1-yl-)-(2R)-hydroxy-3-oxypropyl] amide], the peak concentration (Cmax) in series [3] (listed as amorphous form) came to 270 µg/mL. Moreover, in series [5], the “[Drug] 1.5 hr.” value turned out to be 224 µg/mL.

Take `C#Cc1cccc(Nc2ncnc3cc(OCCOC)c(OCCOC)cc23)c1` [“A” form, [6,7-Bis(2-methoxy-ethoxy)-quinazolin-4-yl]-(3-ethynyl-phenyl)amine]: the solubility in series [6] (read-out: solubility in water) came to 102 µg/mL (≈ 259 µM).

With “4-[3-[4-(2-methylimidazol-1-yl) phenylthio] phenyl]-3,4,5,6-tetrahydro-2H-pyran-4-carboxamide hemifumarate [Drug 6]”, the solubility in series [7] (pH 4, listed as Drug 6 mesylate salt) stood at 3.7 mgA/mL; in series [7] (pH 7, listed as Drug 6 mesylate salt), 0.0042 mgA/mL.

In the case of `C#Cc1cccc(Nc2ncnc3cc(OCCOC)c(OCCOC)cc23)c1` [“C” form, [6,7-Bis(2-methoxy-ethoxy)-quinazolin-4-yl]-(3-ethynyl-phenyl)amine], the solubility in series [6] (read-out: solubility) is 28 µg/mL (≈ 71.2 µM).

“4-[3-[4-(2-methylimidazol-1-yl) phenylthio] phenyl]-3,4,5,6-tetrahydro-2H-pyran-4-carboxamide hemifumarate [Drug 6 hydrochloride salt]”: the solubility in series [7] (pH 4) was determined as 0.37 mgA/mL; in series [7] (pH 7), 0.0009 mgA/mL.
